Laboratory results published in ChEMBL document CHEMBL1201861, “Genomics of Drug Sensitity in Cancer screening data, Wellcome Trust Sanger Institute”.
pIC50: −log10 of the molar value. “And” between values parts separate entries of the source, which are not always exact repeats. Equal values may be shown once. Where a SMILES comes first, the peptide text is derived from it. The star is where a group is joined. Cbz = O=C(OCc1ccccc1)*

Assays:
Test in all cases: cells
DMS-114 = assay type: functional, cell-based, Homo sapiens
IST-MES1 = assay type: functional, cell-based, Homo sapiens;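 further: growth inhibition of IST-MES1 cells, measured with a cell viability assay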
Description: SANGER: Inhibition of human IST-MES1 cell growth in a cell viability assay.

L-428 = assay type: functional, cell-based, Homo sapiens
Description: SANGER: Inhibition of human L-428 cell growth in a cell viability assay.

EW-3 = assay type: functional, cell-based, Homo sapiens;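 further: cell viability assay read-out, IC50 reflects inhibition of growth of the EW-3 cells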
Description: SANGER: Inhibition of human EW-3 cell growth in a cell viability assay.

NB6 = assay type: functional, cell-based, Homo sapiens
Description: SANGER: Inhibition of human NB6 cell growth in a cell viability assay.

KP-N-YS = assay type: functional, cell-based, Homo sapiens;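 further: cell viability assay measuring inhibition of cell line growth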
Description: SANGER: Inhibition of human KP-N-YS cell growth in a cell viability assay.

MZ2-MEL = assay type: functional, cell-based, Homo sapiens;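 further: growth inhibition of MZ2-MEL cells read out with a cell viability assay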
Description: SANGER: Inhibition of human MZ2-MEL cell growth in a cell viability assay.

SK-NEP-1 = assay type: functional, cell-based, Homo sapiens;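 further: growth inhibition of human SK-NEP-1 cells, read out by a cell viability assay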
Description: SANGER: Inhibition of human SK-NEP-1 cell growth in a cell viability assay.

HCC2218 = assay type: functional, cell-based, Homo sapiens;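 further: cell viability assay read-out, with IC50 given as the concentration that inhibits growth of the cell line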
Description: SANGER: Inhibition of human HCC2218 cell growth in a cell viability assay.

MC116 = assay type: functional, cell-based, Homo sapiens;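 further: growth inhibition of MC116 cells, read out with a cell viability assay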
Description: SANGER: Inhibition of human MC116 cell growth in a cell viability assay.

HCE-4 = assay type: functional, cell-based; conditions: Homo sapiens;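 further: cell viability assay measuring inhibition of growth in the human HCE-4 cell line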
Description: SANGER: Inhibition of human HCE-4 cell growth in a cell viability assay.

DOHH-2 = assay type: functional, cell-based, Homo sapiens;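 further: growth inhibition of human DOHH-2 cells, read out with a cell viability assay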
Description: SANGER: Inhibition of human DOHH-2 cell growth in a cell viability assay.

NCI-H1155 = assay type: functional, cell-based, Homo sapiens;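 further: cell growth inhibition measured by a viability assay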
Description: SANGER: Inhibition of human NCI-H1155 cell growth in a cell viability assay.

EW-1 = assay type: functional, cell-based, Homo sapiens;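 further: growth inhibition of the human EW-1 cell line, read out by a cell viability assay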
Description: SANGER: Inhibition of human EW-1 cell growth in a cell viability assay.

BB30-HNC = assay type: functional, cell-based, Homo sapiens;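 further: growth inhibition of the cultured cell line, read out by a cell viability assay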
Description: SANGER: Inhibition of human BB30-HNC cell growth in a cell viability assay.

EM-2 = assay type: functional, cell-based, Homo sapiens;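 further: growth inhibition of EM-2 cells, read out with a cell viability assay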
Description: SANGER: Inhibition of human EM-2 cell growth in a cell viability assay.

NB69 = assay type: functional, cell-based, Homo sapiens;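 further: growth inhibition of NB69 cells, determined by a cell viability assay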
Description: SANGER: Inhibition of human NB69 cell growth in a cell viability assay.

SJSA-1 = assay type: functional, cell-based, Homo sapiens;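 further: growth inhibition of human SJSA-1 cells, read out through a cell viability measurement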
Description: SANGER: Inhibition of human SJSA-1 cell growth in a cell viability assay.

GCIY = assay type: functional, cell-based, Homo sapiens;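 further: growth inhibition of the human GCIY cell line, read out by a cell viability assay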
Description: SANGER: Inhibition of human GCIY cell growth in a cell viability assay.

HDLM-2 = assay type: functional, cell-based, Homo sapiens;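 further: cell viability assay measuring suppression of HDLM-2 proliferation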
Description: SANGER: Inhibition of human HDLM-2 cell growth in a cell viability assay.

TE-10 = assay type: functional, cell-based, Homo sapiens;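 further: growth inhibition of TE-10 cells, measured by a cell viability assay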
Description: SANGER: Inhibition of human TE-10 cell growth in a cell viability assay.

UACC-257 = assay type: functional, cell-based, Homo sapiens
Description: SANGER: Inhibition of human UACC-257 cell growth in a cell viability assay.

NCI-H1355 = assay type: functional, cell-based, Homo sapiens;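 further: growth inhibition of human NCI-H1355 cells, read out by a cell viability assay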
Description: SANGER: Inhibition of human NCI-H1355 cell growth in a cell viability assay.

SK-N-FI = assay type: functional, cell-based, Homo sapiens;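 further: cell viability assay measuring growth inhibition of human SK-N-FI cells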
Description: SANGER: Inhibition of human SK-N-FI cell growth in a cell viability assay.

U-87 MG = assay type: functional, cell-based, Homo sapiens, U-87MG ATCC;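 further: growth inhibition of the cells measured with a viability assay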
Description: SANGER: Inhibition of human U-87-MG cell growth in a cell viability assay.

K5 = assay type: functional, cell-based, Homo sapiens
Description: SANGER: Inhibition of human K5 cell growth in a cell viability assay.

SW 954 = assay type: functional, cell-based, Homo sapiens;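 further: growth inhibition of SW954 human cancer cells, read out as cell viability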
Description: SANGER: Inhibition of human SW954 cell growth in a cell viability assay.

DU-4475 = assay type: functional, cell-based, Homo sapiens
Description: SANGER: Inhibition of human DU-4475 cell growth in a cell viability assay.

SW982 = assay type: functional, cell-based; conditions: Homo sapiens;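 further: growth inhibition of SW982 cells, read out with a cell viability assay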
Description: SANGER: Inhibition of human SW982 cell growth in a cell viability assay.

JAR = assay type: functional, cell-based, Homo sapiens;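 further: growth inhibition of human JAR cells determined with a cell viability assay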
Description: SANGER: Inhibition of human JAR cell growth in a cell viability assay.

NCI-H82 = assay type: functional, cell-based, Homo sapiens;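 further: growth inhibition of NCI-H82 cells, measured with a cell viability readout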
Description: SANGER: Inhibition of human NCI-H82 cell growth in a cell viability assay.

NEC8 = assay type: functional, cell-based, Homo sapiens; conditions: nec8;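 further: growth inhibition of human NEC8 cells, read out by a cell viability assay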
Description: SANGER: Inhibition of human NEC8 cell growth in a cell viability assay.

A498 = assay type: functional, cell-based, Homo sapiens;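 further: growth inhibition of human A498 cells, read out with a cell viability assay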
Description: SANGER: Inhibition of human A498 cell growth in a cell viability assay.

BE-13 = assay type: functional, cell-based, Homo sapiens;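 further: growth inhibition of human BE-13 cells, measured with a cell viability assay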
Description: SANGER: Inhibition of human BE-13 cell growth in a cell viability assay.

SNU-C2B = assay type: functional, cell-based; conditions: Homo sapiens;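 further: cell viability readout used to measure compound-driven suppression of SNU-C2B cell proliferation, IC50 marking half-maximal growth inhibition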
Description: SANGER: Inhibition of human SNU-C2B cell growth in a cell viability assay.

BB65-RCC = assay type: functional, cell-based, Homo sapiens;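 further: growth inhibition of the cell line, measured with a cell viability assay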
Description: SANGER: Inhibition of human BB65-RCC cell growth in a cell viability assay.

MV4-11 = assay type: functional, cell-based, Homo sapiens, MV-4-11;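 further: cell viability readout measuring growth inhibition of human MV-4-11 cells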
Description: SANGER: Inhibition of human MV-4-11 cell growth in a cell viability assay.

TGBC24TKB = assay type: functional, cell-based; conditions: Homo sapiens;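 further: growth inhibition of human TGBC24TKB cells, read out with a cell viability assay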
Description: SANGER: Inhibition of human TGBC24TKB cell growth in a cell viability assay.

CGTH-W-1 = assay type: functional, cell-based, Homo sapiens;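 further: growth inhibition of human CGTH-W-1 cells measured by cell viability assay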
Description: SANGER: Inhibition of human CGTH-W-1 cell growth in a cell viability assay.

SNU-5 = assay type: functional, cell-based, Homo sapiens;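 further: cell viability readout used to measure growth inhibition in human NCI-SNU-5 cells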
Description: SANGER: Inhibition of human NCI-SNU-5 cell growth in a cell viability assay.

C2BBe1 = assay type: functional, cell-based, Homo sapiens;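 further: growth inhibition of C2BBe1 cells, read out through a viability assay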
Description: SANGER: Inhibition of human C2BBe1 cell growth in a cell viability assay.

MSTO-211H = assay type: functional, cell-based, Homo sapiens
Description: SANGER: Inhibition of human MSTO-211H cell growth in a cell viability assay.

ES3 = assay type: functional, cell-based, Homo sapiens;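 further: growth inhibition of ES3 cells, read out with a cell viability assay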
Description: SANGER: Inhibition of human ES3 cell growth in a cell viability assay.

CW-2 = assay type: functional, cell-based, Homo sapiens;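 further: growth inhibition of CW-2 cells, read out by a cell viability assay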
Description: SANGER: Inhibition of human CW-2 cell growth in a cell viability assay.

NCI-N87 = assay type: functional, cell-based; conditions: Homo sapiens;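 further: growth inhibition of human NCI-N87 cells, read out with a cell viability assay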
Description: SANGER: Inhibition of human NCI-N87 cell growth in a cell viability assay.

NCI-H720 = assay type: functional, cell-based, Homo sapiens;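 further: growth inhibition of human NCI-H720 cells determined by a cell viability assay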
Description: SANGER: Inhibition of human NCI-H720 cell growth in a cell viability assay.

NB13 = assay type: functional, cell-based, Homo sapiens;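 further: cell viability readout measuring growth inhibition of human NB13 cells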
Description: SANGER: Inhibition of human NB13 cell growth in a cell viability assay.

NCI-H209 = assay type: functional, cell-based, Homo sapiens;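 further: growth inhibition of human NCI-H209 cells, measured by a cell viability assay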
Description: SANGER: Inhibition of human NCI-H209 cell growth in a cell viability assay.

A253 cell line = assay type: functional, cell-based, Homo sapiens;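 further: growth inhibition of A253 cells, read out with a cell viability assay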
Description: SANGER: Inhibition of human A253 cell growth in a cell viability assay.

A388 = assay type: functional, cell-based; conditions: Homo sapiens;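 further: growth inhibition of human A388 cells, read out with a cell viability assay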
Description: SANGER: Inhibition of human A388 cell growth in a cell viability assay.

KNS-42 = assay type: functional, cell-based; conditions: Homo sapiens;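 further: growth inhibition of KNS-42 cells, read out with a cell viability assay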
Description: SANGER: Inhibition of human KNS-42 cell growth in a cell viability assay.

Q: Which results are given for `CC(C)C[C@@H](C=O)NC(=O)[C@H](CC(C)C)NC(=O)[C@H](CC(C)C)NC(=O)OCc1ccccc1` [MG-132] (Cbz-Leu-Leu-Leu-aldehyde)?
A: pIC50 (DMS-114; dms-114): < 6.00; pIC50 (IST-MES1; ist-mes1): < 6.00; pIC50 (L-428; Homo sapiens, L-428): < 6.00; pIC50 (L-428; l-428): < 6.00; pIC50 (EW-3; ew-3): < 6.00; pIC50 (NB6; nb6): < 6.00; pIC50 (KP-N-YS; kp-n-ys): < 6.00; pIC50 (MZ2-MEL; mz2-mel): 6.76 and < 6.00; pIC50 (SK-NEP-1; sk-nep-1): < 6.00; pIC50 (HCC2218; Homo sapiens, HCC2218): < 6.00; pIC50 (HCC2218; hcc2218): < 6.00; pIC50 (MC116; mc116): < 6.00; pIC50 (HCE-4): < 6.00; pIC50 (DOHH-2; dohh-2): < 6.00; pIC50 (NCI-H1155; nci-h1155): < 6.00; pIC50 (EW-1; ew-1): 6.68 and < 6.00; pIC50 (BB30-HNC; bb30-hnc): < 6.00; pIC50 (EM-2; em-2): < 6.00 and 6.06; pIC50 (NB69; nb69): < 6.00; pIC50 (SJSA-1; Homo sapiens, SJSA-1): < 6.00; pIC50 (SJSA-1; sjsa-1): < 6.00; pIC50 (GCIY; gciy): < 6.00; pIC50 (HDLM-2; hdlm-2): < 6.00; pIC50 (TE-10; te-10): 6.02 and < 6.00; pIC50 (UACC-257; uacc-257): 6.92 and < 6.00; pIC50 (NCI-H1355; nci-h1355): 6.16 and < 6.00; pIC50 (SK-N-FI; sk-n-fi): < 6.00; pIC50 (U-87 MG; Homo sapiens, U-87 MG): < 6.00; pIC50 (U-87 MG; u-87mg atcc): < 6.00; pIC50 (K5; k5): < 6.00; pIC50 (SW 954; Homo sapiens, SW 954): < 6.00; pIC50 (SW 954; sw 954): < 6.00; pIC50 (DU-4475; du-4475): 6.71 and < 6.00; pIC50 (SW982): < 6.00; pIC50 (JAR; jar): < 6.00; pIC50 (NCI-H82; nci-h82): < 6.00; pIC50 (NEC8): 6.92 and < 6.00; pIC50 (A498; Homo sapiens, A498): < 6.00; pIC50 (A498; a498): < 6.00; pIC50 (BE-13; be-13): < 6.00 and 6.25; pIC50 (SNU-C2B): 6.15; pIC50 (BB65-RCC; bb65-rcc): 6.25 and < 6.00; pIC50 (MV4-11; mv-4-11): < 6.00; pIC50 (TGBC24TKB): < 6.00; pIC50 (CGTH-W-1; cgth-w-1): < 6.00; pIC50 (SNU-5; snu-5): 6.16 and < 6.00; pIC50 (C2BBe1; c2bbe1): 6.55 and < 6.00; pIC50 (MSTO-211H; msto-211h): < 6.00; pIC50 (ES3; es3): < 6.00; pIC50 (CW-2; cw-2): < 6.00; pIC50 (NCI-N87): < 6.00; pIC50 (NCI-H720; nci-h720): < 6.00; pIC50 (NB13; nb13): < 6.00; pIC50 (NCI-H209; nci-h209): < 6.00; pIC50 (A253 cell line; a253): 6.79 and < 6.00

Q: Which results are given for `O=C1NC(=O)c2c1c(-c1ccccc1Cl)cc1[nH]c3ccc(O)cc3c21`?
A: pIC50 (DMS-114; Homo sapiens, DMS-114): < 5.70; pIC50 (IST-MES1; Homo sapiens, IST-MES1): < 5.70; pIC50 (L-428; Homo sapiens, L-428): < 5.70; pIC50 (EW-3; Homo sapiens, EW-3): 6.02; pIC50 (NB6; Homo sapiens, NB6): < 5.70; pIC50 (KP-N-YS; Homo sapiens, KP-N-YS): < 5.70; pIC50 (MZ2-MEL; Homo sapiens, MZ2-MEL): < 5.70; pIC50 (SK-NEP-1; Homo sapiens, SK-NEP-1): < 5.70; pIC50 (HCC2218; Homo sapiens, HCC2218): < 5.70; pIC50 (MC116; Homo sapiens, MC116): < 5.70; pIC50 (HCE-4): < 5.70; pIC50 (DOHH-2; Homo sapiens, DOHH-2): < 5.70; pIC50 (NCI-H1155; Homo sapiens, NCI-H1155): < 5.70; pIC50 (EW-1; Homo sapiens, EW-1): 6.47; pIC50 (BB30-HNC; Homo sapiens, BB30-HNC): 5.87; pIC50 (EM-2; Homo sapiens, EM-2): 5.88; pIC50 (NB69; Homo sapiens, NB69): < 5.70; pIC50 (SJSA-1; Homo sapiens, SJSA-1): < 5.70; pIC50 (GCIY; Homo sapiens, GCIY): < 5.70; pIC50 (HDLM-2; Homo sapiens, HDLM-2): < 5.70; pIC50 (TE-10; Homo sapiens, TE-10): < 5.70; pIC50 (A388): < 5.70; pIC50 (UACC-257; Homo sapiens, UACC-257): < 5.70; pIC50 (NCI-H1355; Homo sapiens, NCI-H1355): < 5.70; pIC50 (SK-N-FI; Homo sapiens, SK-N-FI): < 5.70; pIC50 (U-87 MG; Homo sapiens, U-87 MG): < 5.70; pIC50 (K5; Homo sapiens, K5): < 5.70; pIC50 (SW 954; Homo sapiens, SW 954): 6.67; pIC50 (DU-4475; Homo sapiens, DU-4475): < 5.70; pIC50 (SW982): < 5.70; pIC50 (JAR; Homo sapiens, JAR): < 5.70; pIC50 (NCI-H82; Homo sapiens, NCI-H82): < 5.70; pIC50 (A498; Homo sapiens, A498): < 5.70; pIC50 (BE-13; Homo sapiens, BE-13): < 5.70; pIC50 (SNU-C2B): < 5.70; pIC50 (BB65-RCC; Homo sapiens, BB65-RCC): 5.85; pIC50 (MV4-11; Homo sapiens, MV4-11): 6.09; pIC50 (TGBC24TKB): < 5.70; pIC50 (CGTH-W-1; Homo sapiens, CGTH-W-1): < 5.70; pIC50 (SNU-5; Homo sapiens, SNU-5): < 5.70; pIC50 (C2BBe1; Homo sapiens, C2BBe1): < 5.70; pIC50 (MSTO-211H; Homo sapiens, MSTO-211H): < 5.70; pIC50 (KNS-42): < 5.70; pIC50 (ES3; Homo sapiens, ES3): < 5.70; pIC50 (CW-2; Homo sapiens, CW-2): < 5.70; pIC50 (NCI-N87): < 5.70; pIC50 (NCI-H720; Homo sapiens, NCI-H720): 5.77; pIC50 (NB13; Homo sapiens, NB13): 6.02; pIC50 (NCI-H209; Homo sapiens, NCI-H209): 6.25; pIC50 (A253 cell line; Homo sapiens, A253): < 5.70
